According to US8680282B2, “Cyclic inhibitors of carnitine palmitoyltransferase and treating cancer” (University Health Network, priority 2007, dated 2014):

Experiments:
[1] = target: T1, human CPT1A (Homo sapiens, UniProt P50416); test: Human CPT1A LC/MS assay; assay type: biochemical
T1 construct: made in house; host or cells: Saccharomyces cerevisiae (pESC-trp) or cultured mammalian cells (pCDNA3.1); mitochondrial extract
T1 sequence (P50416 1-773): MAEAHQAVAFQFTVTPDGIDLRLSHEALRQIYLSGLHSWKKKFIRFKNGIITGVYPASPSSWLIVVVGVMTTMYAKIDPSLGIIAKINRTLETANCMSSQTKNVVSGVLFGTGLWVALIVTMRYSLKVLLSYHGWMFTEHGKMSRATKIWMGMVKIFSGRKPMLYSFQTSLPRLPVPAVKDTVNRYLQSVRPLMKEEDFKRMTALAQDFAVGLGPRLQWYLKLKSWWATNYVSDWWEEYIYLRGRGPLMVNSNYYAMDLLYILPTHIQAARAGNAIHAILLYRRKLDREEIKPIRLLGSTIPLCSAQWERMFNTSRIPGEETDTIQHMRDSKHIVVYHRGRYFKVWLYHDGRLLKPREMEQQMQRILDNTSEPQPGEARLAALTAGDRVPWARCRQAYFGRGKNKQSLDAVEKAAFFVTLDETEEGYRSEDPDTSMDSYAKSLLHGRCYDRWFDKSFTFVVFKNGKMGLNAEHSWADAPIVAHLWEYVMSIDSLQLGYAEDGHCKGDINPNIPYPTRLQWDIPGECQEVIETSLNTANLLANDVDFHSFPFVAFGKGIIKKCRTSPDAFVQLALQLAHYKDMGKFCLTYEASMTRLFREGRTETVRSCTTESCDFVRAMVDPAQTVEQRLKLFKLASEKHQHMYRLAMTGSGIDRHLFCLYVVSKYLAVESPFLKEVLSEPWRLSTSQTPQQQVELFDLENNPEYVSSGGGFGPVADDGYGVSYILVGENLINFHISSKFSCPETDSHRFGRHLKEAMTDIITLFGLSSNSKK
Text: Nucleotide sequences encoding human CPT1 enzymes were individually cloned into the yeast expression vector pESC-trp at the Cla1 (5′ terminus) and Pac1 (3′ terminus) restriction sites by PCR amplification of the open reading frame using oligonucleotide primers designed to encode the wild-type CPT1 protein sequence. Standard molecular biology techniques were used to transform and express the CPT1 proteins in the yeast Saccharomyces cerevisiae. The yeast cells were lysed by enzymatic degradation of the cell wall by Zymolase, and the mitochondria were isolated by standard biochemical techniques. The integrity of the isolated mitochondria was monitored by determining the activity of succinate dehydrogenase in the mitochondrial preparations. The mitochondrial extracts were stored at −80° C. in buffer containing 10 mM HEPES pH 7.4 and 250 mM sucrose.
Human CPT1 (A, B, C) genes were additionally cloned into the pCDNA3.1 vector individually for expression in cultured mammalian cells. Cells expressing the exogenous CPT1A were identified and grown under standard conditions. Mammalian cells were harvested, and mitochondrial extracts prepared using standard biochemical methods. The mitochondrial extracts were stored at −80° C. in buffer containing 10 mM HEPES pH 7.4 and 250 mM sucrose.
Assays were performed in 96-well plate format. Each 100 μL reaction contained 40 mM KCl, 50 mM TrisHCl pH 7.5, and 250 mM mannitol (Assay Buffer), and 1.6 μg protein of an extract, 20 μM palmitoyl-CoA, 50 μM L-carnitine, and 10 ug/mL BSA. Reactions were incubated at room temperature and stopped after 10 minutes by extraction with 200 μL of water saturated n-butanol containing myristoyl carnitine (500 nM) as an internal standard. The samples were thoroughly mixed, and the phases separated by centrifugation. Samples were prepared for analysis with a 10 fold dilution of the n-butanol phase containing the reaction product palmitoyl carnitine into a 50:50 (acetonitrile:water) solvent for analysis. 5 μL of prepared sample was separated on a Phenomenex Jupiter 5μ C4 reverse-phase column using an Agilent 1100 HPLC with a gradient from 50% acetonitrile (0.5% acetic acid) to 100% acetonitrile and quantified by detection with a Bruker Esquire 3000plus mass spectrometer. The abundance of the palmitoyl carnitine product was determined relative to the internal standard and the actual quantity of palmitoyl carnitine can be determined from a standard curve prepared using the n-butanol solution containing the internal standard.
Compounds were evaluated in two formats, a screening format, and a dose response format. The screening format was performed by adding 25 μL compound in 20% DMSO and Assay Buffer to 25 μL of extract containing […] and Assay Buffer, followed by a 10 minute incubation at room temperature. 50 μL of 40 μM palmitoyl-CoA in Assay Buffer was added to the reaction mixture, mixed and incubated for 10 minutes at room temperature. A negative control for activity was also performed where the carnitine was omitted from the reaction. A positive control for activity was also performed by omitting compound from the solution containing 20% DMSO and Assay Buffer. The reaction mixture was extracted and analyzed as described above. The inhibition by compound was determined by comparing the control relative activity to the relative activity observed in wells containing the compound. Relative activity was determined by subtracting the relative intensity (area palmitoyl carnitine/area myristoyl carnitine) observed in the negative control from the relative intensity observed in the experimental well, and dividing by the relative activity observed in the positive control.
[formula] Compound characterization by dose response format was performed using the above described assay conditions and a 16 point compound titration in 2 fold compound dilution steps. The DMSO concentration was kept constant at 20% (v/v) for all compound concentrations.

[2] = system: HCT-8; test: Cancer cell growth inhibition, SRB assay; assay type: cell-based, human; details: at 10 μM, SRB at Day 6
[3] = system: PC-3; test: Cancer cell growth inhibition, SRB assay; assay type: cell-based, human; details: PC-3; at 10 μM; SRB at Day 6; NE = no activity at 10 micromolar
Procedure: (§1) Human cancer cells (MCF-7, H358, H460, HCT116 p53^+/+, HCT116 p53^−/−, A172, PC-3, DU-145 and SW626) were maintained in DMEM medium containing 10% Fetal Bovine Serum (FBS) (Invitrogen, Burlington, ON, Canada) and normal cells HMEC, 184A1, NHBE and PrEC were cultured in MEGM, MEGM plus transferring and cholera toxin, BEGM and PrEGM supplemented with various growth factors (Cambrex, Charles city, Iowa, USA), respectively.
(§2) Compounds of Examples S1 to S30, and 4-(carboxymethyl)-4-(6-(3-hexyloxy)phenoxy)hexanoamido)-1,1-dimethylpiperidinium 2,2,2-trifluoroactate (“Compound A”) were tested in this example. Each of the tested compounds was dissolved in DMSO and further diluted in cell culture medium for the experiments performed. Cells were seeded into 96-well plates with 1,500-5,000 cells/well according to cell growth rate. After 24 h, DMEM medium containing 10% FBS were changed to DMEM containing 3% FBS for cancer cells. The compound was added into the cell culture at the indicated concentrations, and the final concentration of DMSO was adjusted to a final concentration of 0.1%. Cell viability was assessed by Sulforhodamine B (SRB) assay at Day 6.
(§3) Sulforhodamine B (SRB) (Sigma, Oakville, ON, Canada) is a water-soluble dye that binds to the basic amino acids of the cellular proteins. Thus, colorimetric measurement of the bound dye provides an estimate of the total protein mass that is related to the cell number. The cells were fixed in situ by gently aspirating off the culture media and adding 50 ul of cold 10% Tri-chloroacetic Acid (TCA) per well and incubated at 4° C. for 30-60 min. The plates were washed five times with water and allowed to air dry for 5 min. 50 ul of 0.4% (w/v) SRB dissolved in 1% (v/v) acetic acid were added into each well, plates were then incubated at RT for 30 min for staining, washed four times with 1% acetic acid to remove any unbound dye and then allowed to air dry for 5 min. Stain was solubilized with 100 ul of 10 mM Tris pH 10.5 per well. Absorbance was read at 570 nm on a spectrophotometer. GI50 (compound concentration required for 50% of growth inhibition) was calculated using GraphPad Prism 4.0 software (GraphPad Software, Inc., San Diego, Calif., USA). Growth inhibition (%) was determined as percentage of cells remaining compared to the DMSO-treated cells as control.

[4] = system: A172; test: Cancer cell growth inhibition, SRB assay; assay type: cell-based, human; details: A172; at 10 μM; SRB at Day 6; NE = no activity at 10 micromolar
Procedure: as §1, §2, §3

[5] = system: H358; test: Cancer cell growth inhibition, SRB assay; assay type: cell-based, human; set-up: Percentage of Growth Inhibition: unit not given here; details: H358; at 10 μM; SRB at Day 6; NE = no activity at 10 micromolar
Procedure: as §1, §2, §3

[6] = system: MCF-7; test: Cancer cell growth inhibition, SRB assay; assay type: cell-based, human; set-up: Percentage of Growth Inhibition: scale not given here; details: MCF-7; at 10 μM; SRB at Day 6; NE = no activity at 10 micromolar
Procedure: as §1, §2, §3

[7] = system: SW626; test: Cancer cell growth inhibition, SRB assay; assay type: cell-based, human; set-up: Percentage of Growth Inhibition: scale not given here; details: SW626; at 10 μM; SRB at Day 6; NE = no activity at 10 micromolar
Procedure: as §1, §2, §3

[8] = system: COLO-205; test: Cancer cell growth inhibition, SRB assay; assay type: cell-based, human; details: COLO-205; at 10 μM; SRB at Day 6; NE = no activity at 10 micromolar
[9] = system: SW620; test: Cancer cell growth inhibition, SRB assay; assay type: cell-based, human; set-up: Percentage of Growth Inhibition: scale not given here; details: SW620; at 10 μM; SRB at Day 6; NE = no activity at 10 micromolar
[10] = system: SW480; test: Cancer cell growth inhibition, SRB assay; assay type: cell-based, human; details: SW480; at 10 μM; SRB at Day 6; NE = no activity at 10 micromolar
[11] = system: HCT-15; test: Cancer cell growth inhibition, SRB assay; assay type: cell-based, human; set-up: Percentage of Growth Inhibition: scale not given here; details: HCT-15; at 10 μM; SRB at Day 6; NE = no activity at 10 micromolar
[12] = human CPT1A LC/MS assay, dose response format

| SMILES | IC50 [1, 12] [µM] | Percentage of Growth Inhibition [4] [%] | Percentage of Growth Inhibition [5] | Percentage of Growth Inhibition [6] [%] | Percentage of Growth Inhibition [7] [%] | also measured |
| --- | --- | --- | --- | --- | --- | --- |
| C[N+](C)(C)C[C@H](N)CC(=O)[O-] [L-aminocarnitine, reference compound] | – | – | – | – | – | IC50 ([1]; dose response assay, n=17): 7 ± 2.5 µM |
| CN1CCCC(CC(=O)O)(NC(=O)c2ccc(CCc3ccccc3)o2)C1 (centres unmarked) [Example S13, 3-(carboxymethyl)-1-methyl-3-(5-phenethylfuran-2-carboxamido)-piperidinium 2,2,2-trifluoroacetate] | 100 to 1000 | – | – | – | – | – |
| CCCCCCCCc1ccc(NS(=O)(=O)NC2(CC(=O)O)CNC2)cc1.O=C(O)C(F)(F)F [Example S28, 3-(carboxymethyl)-3-(N-(4-octylphenyl)sulfamoylamino)azetidinium 2,2,2-trifluoroacetate] | > 2500 | 0.3077 | 0.06989 | 0.04154 | 0.04727 | Percentage of Growth Inhibition [2]: 0.06675%; Percentage of Growth Inhibition [3]: 0.6043% |
| CCCCCCCCc1ccc(NC(=O)NC2(CC(=O)O)CCN(C)C2)cc1 (centres unmarked) [Example S17, 3-(carboxymethyl)-1-methyl-3-(3-(4-octylphenyl)ureido)pyrrolidinium 2,2,2-trifluoroacetate] | 10 to 100 | – | – | – | – | – |
| CCCCCCCCc1ccc(NC(=O)NC2(CC(=O)O)CCN(C)CC2)cc1 [Example S1, 4-(carboxymethyl)-1-methyl-4-(3-(4-octylphenyl)ureido)piperidinium 2,2,2-trifluoroacetate] | – | 0.1571 | 0.4324 | 0.1204 | 0.05142 | Percentage of Growth Inhibition [8]: 0.07287%; Percentage of Growth Inhibition [3]: 0.1924%; Percentage of Growth Inhibition [9]: 0.04345%; Percentage of Growth Inhibition [10]: 0.08459%; Percentage of Growth Inhibition [11]: 0.05911% |
| CCCCCc1ccc(S(=O)(=O)NC2(CC(=O)O)CNC2)cc1 [Example S25, 3-(carboxymethyl)-3-(4-pentylphenylsulfonamido)azetidinium 2,2,2-trifluoroacetate] | > 2500 | – | 0.05754 | 0.1452 | 0.07606 | Percentage of Growth Inhibition [11]: 0.00572% |
| CCCCCc1ccc(S(=O)(=O)NC2(CC(=O)O)CCC[N+](C)(C)C2)cc1 (centres unmarked) [Example S12, 3-(carboxymethyl)-1,1-dimethyl-3-(4-pentylphenylsulfonamido)-piperidinium 2,2,2-trifluoroacetate] | ≤ 1 | 0.07689 | 0.04495 | 0.2351 | 0.00486 | Percentage of Growth Inhibition [8]: 0.1281% |
| CCCCCc1ccc(S(=O)(=O)NC2(CC(=O)O)CCN(C)C2)cc1 (centres unmarked) [Example S19, 3-(carboxymethyl)-1-methyl-3-(4-pentylphenylsulfonamido)-pyrrolidinium 2,2,2-trifluoroacetate] | 100 to 1000 | – | – | 0.08166 | – | – |
| C[N+]1(C)CCCC(CC(=O)O)(NC(=O)c2ccc(CCc3ccccc3)o2)C1 (centres unmarked) [Example S14, 3-(carboxymethyl)-1,1-dimethyl-3-(5-phenethylfuran-2-carboxamido)piperidinium 2,2,2-trifluoroacetate] | 10 to 100 | – | 0.3919 | – | – | Percentage of Growth Inhibition [9]: 0.04122% |
